Measured values reported in PubChem BioAssay (NCI).
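Protocol summary: plate cells (96-well), add compound at 5 concentrations, incubate 48 h, interpolate endpoints linearly. The concentration for 50% growth inhibition is given as GI50. Definition used: TGI = concentration required for complete inhibition of growth.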

Legend:
Assay in all cases: DTP human tumour cell line panel, 48 h
SF-295 CNS = system: SF-295 CNS
UACC-62 melanoma = system: UACC-62 melanoma
HS 578T breast = system: HS 578T breast
NCI/ADR-RES ovarian = system: NCI/ADR-RES ovarian
ACHN renal = system: ACHN renal
HCC-2998 colon = system: HCC-2998 colon
UO-31 renal = system: UO-31 renal
COLO 205 colon = system: COLO 205 colon
SK-MEL-2 melanoma = system: SK-MEL-2 melanoma
EKVX NSCLC = system: EKVX NSCLC

Row | Structure (SMILES) | TGI (SF-295 CNS) | TGI (UACC-62 melanoma) | TGI (HS 578T breast) | TGI (NCI/ADR-RES ovarian) | TGI (ACHN renal) | TGI (HCC-2998 colon) | TGI (UO-31 renal) | TGI (COLO 205 colon) | TGI (SK-MEL-2 melanoma) | TGI (EKVX NSCLC) | GI50 (SF-295 CNS) | GI50 (UACC-62 melanoma) | GI50 (HS 578T breast) | GI50 (NCI/ADR-RES ovarian) | GI50 (ACHN renal) | GI50 (HCC-2998 colon) | GI50 (UO-31 renal) | GI50 (COLO 205 colon) | GI50 (SK-MEL-2 melanoma) | GI50 (EKVX NSCLC)
1 | COc1ccc(-c2oc3ccc(C)cc3c(=O)c2O)cc1 | > 100 µM | > 100 µM | > 100 µM | > 100 µM | > 100 µM | > 100 µM | > 100 µM | > 100 µM | > 100 µM | > 100 µM |  |  |  |  |  |  |  |  |  | 
2 | Cn1ccnc1CCc1ccc(F)cc1F | > 100 µM | > 100 µM | > 100 µM | > 100 µM | > 100 µM | > 100 µM | > 100 µM | > 100 µM | > 100 µM | > 100 µM |  |  |  |  |  |  |  |  |  | 
3 | NNC(=O)CC(=O)Nc1ccc(Cl)cc1 | > 100 µM | > 100 µM | > 100 µM | > 100 µM | > 100 µM | > 100 µM | > 100 µM | > 100 µM | > 100 µM | > 100 µM |  |  |  |  |  |  |  |  |  | 
4 | CCNC(=S)N/N=C/c1cc(OC)ccc1O | > 100 µM | > 100 µM | > 100 µM | > 100 µM | > 100 µM | > 100 µM | > 100 µM | > 100 µM | > 100 µM | > 100 µM |  |  |  |  |  |  |  |  |  | 
5 | COC(c1ccsc1)C(C#N)(C#N)N=Cc1ccsc1 (stereo not given) | 34.9 µM | 28.7 µM | 61.7 µM | 53.1 µM | 54.6 µM | 34 µM | 26.2 µM | 33.1 µM | 35.6 µM | 32.9 µM |  |  |  |  |  |  |  |  |  | 
6 | O=[N+]([O-])c1ccc2c(c1)nc(Cc1ccccc1)n2C[C@@H]1CCCN2CCCCC12 (stereo not given in full) | 37.9 µM | 36.3 µM | > 100 µM | > 100 µM | > 100 µM | 33.2 µM | 22.8 µM | 37.4 µM | 44.8 µM | 62 µM |  |  |  |  |  |  |  |  |  | 
7 | CC(C)OC(=O)c1ccc(NCC2=CC(=O)C=CC2=O)cc1Cl | 41.4 µM | 30.1 µM | > 100 µM | > 100 µM | 16 µM | 32.8 µM | 13.9 µM | 21.3 µM | > 100 µM | 32.5 µM |  |  |  |  |  |  |  |  |  | 
8 | CN(C(=O)C12C3C4(C(=O)O)C1(C(=O)N(C)C(C)(C)C)C1C2(C(=O)O)C3(C(=O)N(C)C(C)(C)C)C14C(=O)N(C)C(C)(C)C)C(C)(C)C (stereo not given) | > 100 µM | > 100 µM | > 100 µM | > 100 µM | > 100 µM | > 100 µM | > 100 µM | > 100 µM | > 100 µM | > 100 µM |  |  |  |  |  |  |  |  |  | 
9 | CCN1CCN(C(=O)[C@]23CC[C@@H](C)[C@H](C)[C@@H]2C2=CC[C@@H]4[C@@]5(C)C/C(=C/c6cccnc6)C(=O)C(C)(C)[C@@H]5CC[C@@]4(C)[C@]2(C)CC3)CC1 | 3.05 µM | 2.96 µM | 4.77 µM | 3.32 µM | 6.45 µM | 3 µM | 2.65 µM | 5.12 µM | 4.76 µM | 7.32 µM | 1.63 µM | 1.51 µM | 1.91 µM | 1.59 µM | 2.46 µM | 1.55 µM | 1.36 µM | 2.19 µM | 2.12 µM | 2.17 µM
10 | COC(=O)c1c(OC(C)=O)ccc2c1c1c(OC(C)=O)c3ccccc3c(OC(C)=O)c1n2Cc1cc(OC)cc(OC)c1 | > 100 µM | > 100 µM | > 100 µM | > 100 µM | > 100 µM | 10.9 µM | > 100 µM | > 100 µM | 12.5 µM | 26.7 µM |  |  |  |  |  |  |  |  |  | 
11 | O=C(O)Cc1ccc(Oc2nc3ccccc3nc2-c2cccs2)cc1 | > 100 µM | > 100 µM | > 100 µM | > 100 µM | > 100 µM | > 100 µM | > 100 µM | 80.1 µM | > 100 µM | > 100 µM |  |  |  |  |  |  |  |  |  | 
12 | O=C(CCc1cccc(O)c1)NCCc1cccc(O)c1 | > 100 µM | > 100 µM | > 100 µM | > 100 µM | > 100 µM | > 100 µM | > 100 µM | > 100 µM | > 100 µM | > 100 µM |  |  |  |  |  |  |  |  |  | 
13 | COc1c2occc2c(OC)c2c(=O)c(S(=O)(=O)NC(=O)Nc3ccc(Cl)cc3)coc12 | > 10 µM | > 10 µM | > 10 µM | > 10 µM | > 10 µM | > 10 µM | > 10 µM | > 10 µM | > 10 µM | > 10 µM |  |  |  |  |  |  |  |  |  | 
14 | Cc1cc(NS(=O)(=O)c2ccc(NC(=O)c3ccc4nc5ccccc5c(Nc5ccc(S(=O)(=O)N=C(N)N)cc5)c4c3)cc2)no1 | 38 µM | 46.5 µM | 72.7 µM | 57.5 µM | 26.4 µM | 30.8 µM | 32.1 µM | 38.5 µM | 33.4 µM | 30 µM |  |  |  |  |  |  |  |  |  | 
15 | CC1(C)C2CCC1(CS(=O)(=O)Nc1ccccc1)C(=O)C2 (stereo not given) | > 100 µM | > 100 µM | > 100 µM | > 100 µM | > 100 µM | > 100 µM | > 100 µM | > 100 µM | > 100 µM | > 100 µM |  |  |  |  |  |  |  |  |  | 
